Patent US9018383B2, “Acylamino-substituted cyclic carboxylic acid derivatives and their use as pharmaceuticals” (Sanofi, priority 2009, dated 2015)

Each molecule was assayed against human Edg-2 receptor (Homo sapiens, UniProt Q92633) (assay: Determination of Edg-2 receptor inhibition by FLIPR measurements (LPA-mediated calcium liberation)). Settings: CHO cells overexpressing human Edg-2 receptor, LPA 100 nM, fluo-4 calcium fluorescence; read-out: Inhibitory concentrations IC50 for inhibition of the Edg-2 receptor.
Format: cell-based
Procedure, shortened: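 CHO cells stably overexpressing human Edg-2, loaded with fluo-4 AM, were pre-incubated ~5 min with compound (≤0.3% DMSO), then stimulated with 100 nM LPA 18:1 in HBSS/HEPES/probenecid, pH 7.5. Peak calcium fluorescence over ~3 min, baseline-corrected, versus DMSO gave % inhibition; IC50 from triplicates.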

Sequence of human Edg-2 receptor (Q92633 whole entry): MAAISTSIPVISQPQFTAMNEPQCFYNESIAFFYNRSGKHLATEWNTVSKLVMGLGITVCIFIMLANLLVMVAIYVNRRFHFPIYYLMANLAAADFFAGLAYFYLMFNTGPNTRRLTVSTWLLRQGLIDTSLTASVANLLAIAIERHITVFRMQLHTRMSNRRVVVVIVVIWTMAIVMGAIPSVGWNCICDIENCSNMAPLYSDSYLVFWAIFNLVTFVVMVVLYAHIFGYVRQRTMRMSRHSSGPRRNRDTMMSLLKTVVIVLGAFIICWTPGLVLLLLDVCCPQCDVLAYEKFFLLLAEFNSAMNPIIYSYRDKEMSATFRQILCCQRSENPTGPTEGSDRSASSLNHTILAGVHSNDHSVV

Molecule	IC50
CC[C@H]1CC[C@](NC(=O)c2ccc(OC)c(-c3cccc(C(F)(F)F)c3)c2)(C(=O)O)CC1 [Example 331]	< 100 nM
CCc1ccc(C(=O)NC2(C(=O)O)CCCCCC2)cc1OCCc1cccc(C)c1 [Example 62, 1-[4-Ethyl-3-(2-m-tolyl-ethoxy)-benzoylamino]-cycloheptanecarboxylic acid]	< 100 nM
COc1ccc(C(=O)NC2(C(=O)O)CCCCCC2)cc1OCCc1cc(C)ccc1F [Example 1, 1-{3-[2-(2-Fluoro-5-methyl-phenyl)-ethoxy]-4-methoxy-benzoylamino}-cycloheptanecarboxylic acid]	100 to 1000 nM
Cc1cccc(CCOc2cc(C(=O)N[C@]3(C(=O)O)CC[C@H](C)CC3)ccc2OCCO)c1 [Example 123, cis-1-[4-(2-Hydroxy-ethoxy)-3-(2-m-tolyl-ethoxy)-benzoylamino]-4-methyl-cyclohexanecarboxylic acid]	< 100 nM
CC[C@H]1CC[C@@](NC(=O)c2ccc(OC)c(-c3cccc(OC(F)(F)F)c3)c2)(C(=O)O)CC1 [Example 328]	100 to 1000 nM
COc1ncc(C(=O)N[C@]2(C(=O)O)CC[C@H](C(F)(F)F)CC2)cc1-c1cccc(C(F)(F)F)c1 [Example 376]	< 100 nM
CCC1CC1(NC(=O)c1ccc(OC)c(OCCc2cccc(C)c2)c1)C(=O)O (stereo not drawn) [Example 41]	< 100 nM
CCc1ncc(C(=O)N[C@]2(C(=O)O)CC[C@@H](CC)CC2)cc1OCCc1cccc(Cl)c1 [Example 438, trans-1-({5-[2-(3-Chloro-phenyl)-ethoxy]-6-ethyl-pyridine-3-carbonyl}-amino)-4-ethyl-cyclohexanecarboxylic acid]	< 100 nM
CC[C@H]1CC[C@@](NC(=O)c2cnc(OC)c(-c3ccc(OC)c(F)c3)c2)(C(=O)O)CC1 [Example 412]	< 100 nM
COc1ccc(C(=O)NC2(C(=O)O)CCCCCC2)cc1OCCc1cc(F)ccc1F [Example 20]	< 100 nM
COc1ccc(C(=O)NC2(C(=O)O)CCCC(O)CC2)cc1OCCc1cccc(C)c1 (stereo not drawn) [Example 53, 4-Hydroxy-1-[4-methoxy-3-(2-m-tolyl-ethoxy)-benzoylamino]-cycloheptanecarboxylic acid]	100 to 1000 nM
COc1ncc(C(=O)NC2(C(=O)O)CCCCCC2)cc1-c1cccc(OC(F)(F)F)c1 [Example 96]	< 100 nM
CC[C@H]1CC[C@](NC(=O)c2ccc(OC)c(-c3ccc(OC)c(F)c3)c2)(C(=O)O)CC1 [Example 425, cis-4-Ethyl-1-[(3′-fluoro-6,4′-dimethoxy-biphenyl-3-carbonyl)-amino]-cyclohexanecarboxylic acid]	100 to 1000 nM
COc1ncc(C(=O)N[C@]2(C(=O)O)CC[C@@H](C)CC2)cc1OCCc1cc(C)ccc1C [Example 84, trans-1-({5-[2-(2,5-Dimethyl-phenyl)-ethoxy]-6-methoxy-pyridine-3-carbonyl}-amino)-4-methyl-cyclohexanecarboxylic acid]	1000 to 30000 nM
COc1ccc(-c2cc(C(=O)N[C@]3(C(=O)O)CC[C@@H](C)CC3)cnc2OC)cc1Cl [Example 320]	< 100 nM
COc1ccc(C(=O)NC2(C(=O)O)C[C@H]3CC[C@]2(C)C3(C)C)cc1OCCc1cccc(C)c1 (stereo partly drawn) [Example 39]	1000 to 30000 nM
CCc1ncc(C(=O)N[C@]2(C(=O)O)CC[C@H](CC)CC2)cc1OCCc1cccc(Cl)c1 [Example 437, cis-1-({5-[2-(3-Chloro-phenyl)-ethoxy]-6-ethyl-pyridine-3-carbonyl}-amino)-4-ethyl-cyclohexanecarboxylic acid]	< 100 nM

Molecule	IC50
CC[C@H]1CC[C@](NC(=O)c2cnc(OC)c(OCCc3cccc(CCO)c3)c2)(C(=O)O)CC1 [Example 423, cis-4-Ethyl-1-[(5-{2-[3-(2-hydroxy-ethyl)-phenyl]-ethoxy}-6-methoxy-pyridine-3-carbonyl)-amino]-cyclohexanecarboxylic acid]	< 100 nM
COc1ncc(C(=O)NC2(C(=O)O)CCCCCC2)cc1OCCc1cc(C)ccc1C [Example 87, 1-({5-[2-(2,5-Dimethyl-phenyl)-ethoxy]-6-methoxy-pyridine-3-carbonyl}-amino)-cycloheptanecarboxylic acid]	1000 to 30000 nM
COc1ncc(C(=O)NC2(C(=O)O)CCCCCC2)cc1-c1cccc(Cl)c1 [Example 94, 1-{[5-(3-chloro-phenyl)-6-methoxy-pyridyl-3-carbonyl]-amino}-cycloheptanecarboxylic acid]	100 to 1000 nM
CC[C@H]1CC[C@](NC(=O)c2ccc(OCCO)c(OCCc3cccc(Cl)c3)c2)(C(=O)O)CC1 [Example 419, cis-1-[3-[2-(3-Chloro-phenyl)-ethoxy]-4-(2-hydroxy-ethoxy)-benzoylamino]-4-ethyl-cyclohexanecarboxylic acid]	< 100 nM
COc1ccc(C(=O)NC2(C(=O)O)CCCOCC2)cc1OCCc1cccc(C)c1 (stereo not drawn) [Example 25, 4-[4-Methoxy-3-(2-m-tolyl-ethoxy)-benzoylamino]-oxepane-4-carboxylic acid]	1000 to 30000 nM
CCC1CCC(NC(=O)c2ccc(OC)c(OCCc3cccc(C)c3)c2)(C(=O)O)CC1 (stereo not drawn) [Example 30]	< 100 nM
COc1ncc(C(=O)N[C@]2(C(=O)O)CC[C@@H](C)CC2)cc1OCCc1cccc(Cl)c1 [Example 85, trans-1-({5-[2-(3-chloro-phenyl)-ethoxy]-6-methoxy-pyridine-3-carbonyl}-amino)-4-methyl-cyclohexanecarboxylic acid]	< 100 nM
COc1ccc(C(=O)NC2(C(=O)O)CCCCCC2)cc1OCCc1cccs1 [Example 6]	100 to 1000 nM
CCC1CCC(NC(=O)c2ccc(OC)c(OCCc3cccc(C)c3)c2)(C(=O)O)CC1 (stereo not drawn) [Example 50]	< 100 nM
cis-1-{[5-(3-Chloro-4-methoxy-phenyl)-6-methoxy-pyridine-3-carbonyl]-amino}-4-ethyl-cyclohexanecarboxylic acid [Example 305]	< 100 nM
CC[C@H]1CC[C@@](NC(=O)c2ccc(OC)c(-c3cccc(C(F)(F)F)c3)c2)(C(=O)O)CC1 [Example 332]	< 100 nM
CC[C@H]1CC[C@](NC(=O)c2ccc(OC)c(-c3cccc(OC(F)(F)F)c3)c2)(C(=O)O)CC1 [Example 327]	< 100 nM
COc1c(F)cc(C(=O)N[C@]2(C(=O)O)CC[C@@H](C)CC2)cc1OCCc1cccc(CCO)c1 [Example 392, trans-1-(3-Fluoro-5-{2-[3-(2-hydroxy-ethyl)-phenyl]-ethoxy}-4-methoxy-benzoylamino)-4-methyl-cyclohexanecarboxylic acid]	< 100 nM
COc1ccc(C(=O)N[C@]2(C(=O)O)CC[C@H](C)CC2)cc1OCCc1ccccc1 [Example 406, cis-1-(4-Methoxy-3-phenethyloxy-benzoylamino)-4-methyl-cyclohexanecarboxylic acid]	100 to 1000 nM
COc1ncc(C(=O)NC2(C(=O)O)CCCCCC2)cc1OCCc1cccc(C)c1 [Example 77, 1-{[6-Methoxy-5-(2-m-tolyl-ethoxy)-pyridine-3-carbonyl]-amino}-cycloheptanecarboxylic acid]	< 100 nM
COc1ccc(C(=O)N[C@]2(C(=O)O)CC[C@H](C(F)(F)F)CC2)cc1-c1cccc(C2COC2)c1 [Example 459, 1-[(6-Methoxy-3′-oxetan-3-yl-biphenyl-3-carbonyl)-amino]-4-trifluoromethyl-cyclohexanecarboxylic acid]	< 100 nM
